This is an account of results in ChEMBL document CHEMBL1201862, “PubChem BioAssay data set” (2004).

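Values below derive from 48-hour exposures of cells grown in 96-well plates, with endpoints linearly interpolated between the two concentrations bracketing the appropriate inhibition level. GI50 = concentration required for 50% inhibition of growth.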 Active and inactive are the calls of the source. No stated cut-off is given here; in the data, active = GI50 up to about 1.1 µM and inactive = higher.

Common to all, as to test: DTP human tumour cell line panel, 48 h
Experiment [1] concerns EKVX.
In experiment [2] the test system is IGROV-1.
Experiment [3] relates to SK-MEL-28.
Experiment [4] deals with NCI-H23.
For experiment [5], the system named is HCT-116.
The subject of experiment [6] is A549.
Experiment [7] relates to UACC-257.
Experiment [8] deals with CAKI-1.
The test system of experiment [9] is TK-10.
The subject of experiment [10] is HCC 2998.
Experiment [11] deals with LOX IMVI.
Experiment [12] concerns ACHN.
Experiment [13] relates to SNB-19.
Experiment [14] relates to NCI-H226.
Experiment [15] has as its system OVCAR-5.
For experiment [16], the system named is MDA-MB-231.
Experiment [17] relates to HOP-92.
For experiment [18], the system named is CCRF-CEM.
In experiment [19] the test system is OVCAR-8.
The subject of experiment [20] is SF-295.

With `NC(=S)N/N=C1\C(=O)Nc2c(Cl)cc(Cl)cc21`, the GI50 (usually the concentration that inhibits growth by half) in [1] was 20.3 µM (inactive); in [2], 22.5 µM (inactive); in experiment [3], 15 µM (inactive); in experiment [4] it was 37.6 µM (inactive); in experiment [5], 17.9 µM (inactive); in [6], 31.3 µM (inactive). For the same compound, the GI50 was 24.2 µM (inactive) in experiment [7]; 41.2 µM (inactive) in experiment [8]; 73.1 µM (inactive) in experiment [9]; 34.5 µM (inactive) in experiment [10]; 18.3 µM (inactive) in experiment [11]; 37.4 µM (inactive) in [12]. In addition, the GI50 in experiment [13] was 31.3 µM (inactive); in [14], 15.7 µM (inactive); in experiment [15], 81.7 µM (inactive); in experiment [16], 22.9 µM (inactive); in experiment [17] it was 72.1 µM (inactive); in [18] it was 23.5 µM (inactive). In addition, the GI50 is 18.1 µM (inactive) in [19] and 19.2 µM (inactive) in [20].
For `CCN(CC)CCNCc1cc(Cl)cc2c1OCOC2`, the GI50 in experiment [1], in experiment [2], in experiment [3], in [4], in experiment [5] and in [6] was > 10 µM (inactive) in each case. Also, the GI50 in [8], in experiment [9], in [10], in experiment [11], in experiment [12] and in [13] was > 10 µM (inactive) throughout. In addition, the GI50 in experiment [14], in experiment [15], in [16], in experiment [18], in experiment [19] and in [20] was > 10 µM (inactive) throughout.
For `CN(C)c1ccc(/C=N/c2ccc(Oc3ccc(Cl)cc3)c(Cl)c2)cc1`, the GI50 is 17.5 µM (inactive) in experiment [1]; 21.7 µM (inactive) in experiment [2]; 19.3 µM (inactive) in experiment [3]; 19 µM (inactive) in [4]; 5.2 µM (inactive) in experiment [5]; 18.7 µM (inactive) in [6]. Moreover, the GI50 is 19.8 µM (inactive) in experiment [7]; 21.3 µM (inactive) in experiment [8]; 32.4 µM (inactive) in [9]; 17.7 µM (inactive) in experiment [10]; 17.9 µM (inactive) in experiment [11]; 28.6 µM (inactive) in experiment [12]. The GI50 in experiment [13] is 16.4 µM (inactive); in experiment [14] it was 21.6 µM (inactive); in experiment [15], 28.3 µM (inactive); in [16], 16.5 µM (inactive); in [17] it was 18.2 µM (inactive); in [18], 10.8 µM (inactive). In addition, the results for the GI50 in experiment [19] and in experiment [20] were 17.5 µM (inactive) and 24.7 µM (inactive), respectively.
Regarding `C/C=C1\NC(=O)[C@H]2CSSCCC=C[C@H](CC(=O)N[C@H](C(C)C)C(=O)N2)OC(=O)[C@H](C(C)C)NC1=O`, the GI50 in [1] is 0.00102 µM (active); in experiment [3], 9.98e-05 µM (active); in [4], 0.000125 µM (active); in experiment [5], 9.2e-05 µM (active); in [6], 0.000148 µM (active); in experiment [8], 0.00159 µM (active). Moreover, the GI50 in [9] was 0.000226 µM (active); in [10] it was < 0.01 µM (active); in experiment [12], 0.00452 µM (active); in experiment [13] it was 0.000116 µM (active); in experiment [14] it was 0.000123 µM (active); in experiment [16], 2.43e-05 µM (active). Moreover, the GI50 in experiment [17] is 0.000366 µM (active); in experiment [18], 0.000117 µM (active); in [19], 0.000255 µM (active); in experiment [20], 0.000117 µM (active).
As to `COc1ccc2[nH]c(Cl)c(/C=C3/C(=O)Nc4cc(C)c(OC)cc43)c2c1`, the GI50 was 9.53 µM (inactive) in experiment [1]; 4.31 µM (inactive) in experiment [2]; 9.38 µM (inactive) in [3]; 5.11 µM (inactive) in experiment [4]; 4.59 µM (inactive) in experiment [5]; 5.26 µM (inactive) in [6]. The GI50 in [7] was 11.4 µM (inactive); in experiment [8] it was 7.35 µM (inactive); in experiment [9], 9.18 µM (inactive); in [10] it was 4.89 µM (inactive); in [11] it was 5.3 µM (inactive); in experiment [12], 9.53 µM (inactive). Further, the GI50 is 8.26 µM (inactive) in experiment [13]; 6.93 µM (inactive) in experiment [15]; 3.81 µM (inactive) in experiment [16]; 11.7 µM (inactive) in experiment [17]; 3.43 µM (inactive) in experiment [18]; 7.71 µM (inactive) in [19]. Moreover, the GI50 in experiment [20] was 1.98 µM (inactive).
Take `C=Cc1cc2c(cc1O)CC[C@@H]1[C@@H]2CC[C@]2(C)[C@@H](O)CC[C@@H]12`: the GI50 was 7.38 µM (inactive) in [1]; 8.09 µM (inactive) in [2]; 4.06 µM (inactive) in [3]; 3.18 µM (inactive) in [4]; 5.78 µM (inactive) in [6]; 4.15 µM (inactive) in [7]. For the same compound, the GI50 was 7.94 µM (inactive) in [8]; 12.2 µM (inactive) in [9]; 11.2 µM (inactive) in [10]; 8.63 µM (inactive) in experiment [11]; 7.23 µM (inactive) in experiment [12]; 4.23 µM (inactive) in [13]. Moreover, the GI50 is 12.4 µM (inactive) in experiment [14]; 21.3 µM (inactive) in experiment [15]; 5.33 µM (inactive) in [16]; 4.15 µM (inactive) in experiment [18]; 3.82 µM (inactive) in [20].
`CCCO[C@@H]1[C@@H](OC(C)=O)[C@@H](OC(C)=O)C(C)(C)/C=C/[C@H](C)C(=O)[C@@]2(OC(C)=O)C[C@@](C)(OC(C)=O)[C@H](OC(C)=O)[C@@H]2[C@H]2OC(=O)CC[C@@]12OC(=O)c1ccccc1`: the GI50 in experiment [1] is > 25 µM (inactive); in [2] it was > 25 µM (inactive); in [4], > 25 µM (inactive); in experiment [5], 6.97 µM (inactive); in [7], > 25 µM (inactive); in [8], 17.7 µM (inactive). Also, the GI50 in experiment [9] is > 25 µM (inactive); in [10], 18.5 µM (inactive); in [11], > 25 µM (inactive); in [12], > 25 µM (inactive); in experiment [13], > 25 µM (inactive); in experiment [14], > 25 µM (inactive). Further, the GI50 was > 25 µM (inactive) in experiment [15]; > 25 µM (inactive) in [16]; > 25 µM (inactive) in experiment [17]; 4.85 µM (inactive) in experiment [18]; > 25 µM (inactive) in experiment [19]; 10.4 µM (inactive) in [20].
On to `CO/N=C1/c2sccc2[C@H](NC(=O)CNC(=O)OC(C)(C)C)[C@@H]1O`, for which the GI50 in experiment [1], in [2], in experiment [3], in [4], in experiment [5] and in [6] was > 100 µM (inactive) throughout. For the same compound, the GI50 in [7], in experiment [8], in experiment [9], in experiment [10], in experiment [11] and in experiment [13] was > 100 µM (inactive) in each case. In addition, the GI50 in experiment [14], in experiment [15], in experiment [16], in experiment [17], in experiment [18] and in experiment [19] was > 100 µM (inactive) throughout. Moreover, the GI50 in experiment [20] is > 100 µM (inactive).
Turning to `S=c1nc(Nc2ccc(Br)cc2)c2c3c(sc2[nH]1)CN(N1CCc2c(sc4[nH]c(=S)nc(Nc5ccc(Br)cc5)c24)C1)CC3`, the GI50 in experiment [1] was 35.2 µM (inactive); in [2] it was 26.2 µM (inactive); in [3] it was 11.6 µM (inactive); in [4], 24 µM (inactive); in experiment [5], 12.3 µM (inactive); in experiment [6], 23 µM (inactive). The GI50 in [7] is 28.6 µM (inactive); in [8], > 50 µM (inactive); in experiment [9], > 50 µM (inactive); in experiment [10], 23.1 µM (inactive); in [11], 8.67 µM (inactive); in experiment [12] it was 21.1 µM (inactive). Further, the GI50 in experiment [13] was 22.5 µM (inactive); in experiment [14], 20.8 µM (inactive); in experiment [15], 16 µM (inactive); in experiment [16] it was 17.9 µM (inactive); in experiment [18] it was 23.9 µM (inactive); in experiment [19], > 50 µM (inactive). Besides, in experiment [20], the GI50 is 19.1 µM (inactive).
On to `CCC(=O)NC(OCC1(CC)COC1)(C(F)(F)F)C(F)(F)F`, for which the GI50 in experiment [1], in [3], in [4], in [5], in experiment [7] and in experiment [9] was > 100 µM (inactive) throughout. The GI50 in [10], in experiment [11], in experiment [12], in experiment [13], in [14] and in experiment [15] was > 100 µM (inactive) throughout. Also, the GI50 in [16] and in [18] was > 100 µM (inactive) throughout.
`CC(C)(C)NC(=S)N/N=C/c1ccccn1`: the GI50 in [1] was 0.0596 µM (active); in [2] it was 0.0281 µM (active); in [3], 3.4 µM (inactive); in experiment [5], < 0.01 µM (active); in [6], 2.13 µM (inactive); in [7] it was < 0.0467 µM (active). Also, the GI50 in [8] is < 0.0118 µM (active); in experiment [9], 14.1 µM (inactive); in experiment [10], 6.84 µM (inactive); in experiment [12], < 0.0237 µM (active); in experiment [13], 7.36 µM (inactive); in experiment [14] it was 1 µM (active). Also, the GI50 in [15] is 0.361 µM (active); in experiment [16] it was 0.223 µM (active); in [17] it was 2.65 µM (inactive); in experiment [18], < 0.01 µM (active); in [19], 0.612 µM (active); in [20] it was 2.84 µM (inactive).
